Earlier results in patent publication EP4578441A1, “TREATMENT OF LOCALIZED PAIN” (PlantTec Medical GmbH, priority 2023, dated 2025).
Read-outs that look alike come from different tables or passages of the source.

Tests used:
volunteers = conditions: i.v. infusions
[1] = free base

| water solubility [1] | Compound | CNS toxicity threshold, free plasma ropivacaine concentration (volunteers; free plasma concentration) | CNS toxicity threshold, free plasma ropivacaine concentration, maximum (volunteers; maximum) | CNS toxicity threshold, free plasma ropivacaine concentration, minimum (volunteers; minimum) | safety of local administration (dose of 400 mg) | safety of local administration (dose of 800 mg) |
| --- | --- | --- | --- | --- | --- | --- |
|  | CCCN1CCCC[C@H]1C(=O)Nc1c(C)cccc1C [ropivacaine, (S)-1-Propyl-2',6'-dimethyl-2-piperidylcarboxyanilide] | 0.60 µg/mL | 0.85 µg/mL | 0.34 µg/mL | safe | safe |
| weak | CCCN1CCCC[C@H]1C(=O)Nc1c(C)cccc1C [ropivacaine free base, (S)-1-Propyl-2',6'-dimethyl-2-piperidylcarboxyanilide] |  |  |  |  |  |
